Results reported in patent EP0904269B1, “3,4-DIARYL-2-HYDROXY-2,5-DIHYDROFURANS AS PRODRUGS TO COX-2 INHIBITORS” (Merck Frosst Canada & Co., priority 1995, dated 1997).

Tested on: Rat Paw Edema
Assay: Rat paw edema assay (carrageenan-induced)
Assay type: in vivo, Male Sprague-Dawley rats
Details: dose of prodrug, po, required to reduce edema formation by 50% as compared to the vehicle control
Protocol: Male Sprague-Dawley rats (150-200 g) are fasted overnight and are given, po, either vehicle (1% methocel or 5% Tween 80) or a test compound. One hr later, a line is drawn using a permanent marker at the level above the ankle in one hind paw to define the area of the paw to be monitored. The paw volume (V0) is measured using a plethysmometer (Ugo-Basile, Italy) based on the principle of water displacement. The animals are then injected subplantarly with 50 µl of 1% carrageenan solution in saline (FMC Corp, Maine) into the paw using an insulin syringe with a 25-gauge needle (i.e. 500 µg carrageenan per paw). Three hr later, the paw volume (V3) is measured and the increases in paw volume (V3 - VO) are calculated. The animals are sacrificed by CO2 asphyxiation and the absence or presence of stomach lesions scored. Data is compared with the vehicle-control values and percent inhibition calculated. All treatment groups are coded to eliminate observer bias.
Compounds of the present invention are prodrugs of inhibitors of COX-2 and are thereby useful in the treatment of COX-2 mediated diseases as enumerated above. The extent of conversion of these compounds to the active COX-2 inhibitors may be seen in the representative results shown below along with their antiinflammatory activity. The plasma levels indicated are the maximum rat plasma concentrations of the active COX-2 inhibitor observed when the rat was treated with a 20 mg/kg oral dose of the indicated prodrug. The ED50 values in the rat paw edema assay represent the dose of prodrug required to reduce edema formation by 50% as compared to the vehicle control.

| Compound | ED50 [mg/kg] |
| --- | --- |
| CS(=O)(=O)c1ccc(C2=C(c3ccccc3)C(O)CC2)cc1 (centres unmarked) [Example 13, 3-(4-(Methylsulfonyl)phenyl)-2-phenyl-2-cyclopenten-1-ol] | 0.9 |
| CC1(C)OC(O)C(Oc2cccc(F)c2)=C1c1ccc(S(C)(=O)=O)cc1 (centres unmarked) [Example 9, 5.5-Dimethyl-3-(3-fluorophenoxy)-2-hydroxy-4-(4-(methylsulfonyl)phenyl)-2,5-dihydrofuran] | 1.7 |
| CC1(C)OC(O)C(Oc2ccc(F)c(F)c2)=C1c1ccc(S(C)(=O)=O)cc1 (centres unmarked) [Example 10, 5.5-Dimethyl-3-(3,4-difluorophenoxy)-2-hydroxy-4-(4-(methylsulfonyl)phenyl)-2.5-dihydrofuran] | 0.09 |
| CC1(C)OC(O)C(c2cc(F)cc(F)c2)=C1c1ccc(S(C)(=O)=O)cc1 (centres unmarked) [Example 2, 3-(3,5-Difluorophenyl)-5,5-dimethyl-2-hydroxy-4-(4-(methylsulfonyl)phenyl)-2,5-dihydrofuran] | 0.7 |
| CC1(C)OC(O)C(c2cccc(F)c2)=C1c1ccc(S(C)(=O)=O)cc1 (centres unmarked) [Example 1, 5,5-Dimethyl-3-(3-fluorophenyl)-2-hydroxy-4-(4-methylsulfonylphenyl)-2.5-dihydrofuran] | 2.5 |
| CS(=O)(=O)c1ccc(C2=C(c3cccnc3)C(O)CC2)cc1 (centres unmarked) [Example 40, 3-(4-Methylsulfonylphenyl)-2-(3-pyridinyl)-2-cyclopenten-1-ol] | 1.5 |
| CC(C)OC1=C(c2ccc(S(C)(=O)=O)cc2)C(C)(C)OC1O (centres unmarked) [Example 39, 3-Isopropoxy-5,5-dimethyl-4-(4-methylsulfonylphenyl)-2,5-dihydrofuran-2-ol] | 2.7 |
| CC(OC1=C(c2ccc(S(C)(=O)=O)cc2)C(C)(C)OC1O)C1CC1 (centres unmarked) [Example 44, 3-(1-Cyclopropylethoxy)-5,5-dimethyl-4-(4-methylsulfonylphenyl)-2,5-dihydrofuran-2-ol] | 1.6 |
